We go through four compounds from PMC4205912, “Sea foam as a source of fungal inoculum for the isolation of biologically active natural products” (Mycology, 2014).

≈ marks a conversion by molar mass, not a printed value. A value given as a limit tells only on which side of the number the result lay.

One experiment relates to MRSA ATCC 33591. In words: microbroth antibiotic susceptibility testing, MRSA. The conditions noted are these: triplicate, averaged, 22 h at 37°C; for IC50 / MIC: Staphylococcus aureus; for IC50: read-out: MRSA IC50; for MIC: read-out: MRSA MIC. The class given is cell-based, methicillin-resistant Staphylococcus aureus. Here is the method: (§1) All microbroth antibiotic susceptibility testing was carried out in triplicate in 96-well plates in accordance with Clinical Laboratory Standards Institute testing standards (NCCLS, [2003]) using the following pathogens: MRSA ATCC 33591 (MRSA), S. warneri ATCC 17917, VRE EF379 (VRE), Pseudomonas aeruginosa ATCC 14210, Proteus vulgaris ATCC 12454, and Candida albicans ATCC 14035. Extract fractions were assayed at 250 µg/mL while pure compounds were serially diluted to generate a range of 12 concentrations (128–0.0625 µg/mL) in a final well volume concentration of 2% DMSO(aq). […] The optical density of the plate was recorded using a Thermo Scientific Varioskan Flash plate reader at 600 nm at time zero and then again after incubation of the plates for 22 h at 37°C. After subtracting the time zero OD600 from the final reading, the percentages of microorganism survival relative to vehicle control wells were calculated.
For orientation: In broth dilution the organism is exposed to a series of concentrations in liquid medium.

The next experiment relates to S. warneri ATCC 17917. In words: microbroth antibiotic susceptibility testing, S. warneri. The class given is cell-based. The conditions noted are these: triplicate, averaged, 22 h at 37°C; for IC50 / MIC: Staphylococcus warneri, ATCC17917; for IC50: read-out: S. warneri IC50; for MIC: read-out: S. warneri MIC. Here is the method:
as §1

A further experiment concerns VRE EF379. Nature of the experiment: microbroth antibiotic susceptibility testing, VRE. The experiment is classed as cell-based, vancomycin-resistant Enterococcus faecium. The note with it: triplicate, averaged, 22 h at 37°C; for IC50 / MIC: Enterococcus, VRE; for IC50: read-out: VRE IC50; for MIC: read-out: VRE MIC. Here is the method:
as §1

For experiment [1], the system named is Proteus vulgaris ATCC 12454. Nature of the experiment: microbroth antibiotic susceptibility testing, P. vulgaris. The conditions noted are these: triplicate, averaged, 22 h at 37°C; for IC50 / MIC: Proteus vulgaris, ATCC12454. The experiment is classed as cell-based. Here is the method: as §1, with “14035.” for “14035. Extract fractions were assayed at 250 µg/mL while pure compounds were serially diluted to generate a range of 12 concentrations (128–0.0625 µg/mL) in a final well volume concentration of 2% DMSO(aq).”

Experiment [2] concerns Pseudomonas aeruginosa ATCC 14210. In words: microbroth antibiotic susceptibility testing, P. aeruginosa. The conditions noted are these: triplicate, averaged, 22 h at 37°C; for IC50 / MIC: Pseudomonas aeruginosa, ATCC14210. The experiment is classed as cell-based. Here is the method: as §1
For experiment [3], the system named is Candida albicans ATCC 14035. In words: microbroth susceptibility testing, C. albicans. The class given is cell-based. The note with it: for IC50 / MIC: Candida albicans, ATCC14035. Here is the method: as §1
Experiment [4] has as its system adult human epidermal keratinocytes (HEKa). Nature of the experiment: cytotoxicity assay (Alamar blue), keratinocytes. The conditions noted are these: HeKa cells, 24 h; for IC50: Homo sapiens, read-out: Keratinocyte IC50. The experiment is classed as cell-based. Here is the method:
(§2) Human foreskin BJ fibroblast cells (ATCC CRL-2522), adult human epidermal keratinocytes (HEKa), and human breast adenocarcinoma cells (ATCC HTB-26) were grown to 80% confluency (growth conditions are provided in Supplementary Materials and Methods), the cells were counted, diluted, and plated into treated 96-well cell culture plates. The BJ fibroblast and HEKa cells were plated at a cell density of 10,000 cells per well and the HTB-26 cells were plated at cell density of 5000 cells per well in 90 µL of respective growth medium (without the addition of antibiotics) and incubated for 24 h to allow cells to adhere to the plates before treatment. Pure compounds were tested in triplicate in serial dilutions of eight concentrations ranging from 128 µg/mL to 1 µg/mL per well (final well volume of 100 µL, 1% DMSO per well). Each of the cell lines were incubated at 37°C in a humidified atmosphere of 5% CO2; the BJ fibroblast and HEKa cells for 24 h and the HTB-26 cells for 72 h. Each plate contained four uninoculated positive controls, four untreated negative controls, and one column containing a concentration range of zinc pyrithione or doxorubicin. Alamar blue was added, 24 h after the treatment, and fluorescence was monitored using a Thermo Scientific Varioskan Flash plate reader at 560/12 excitation, 590 nm emission both at time zero and 4 h after Alamar blue addition. The inferred percentage of cell viability relative to vehicle control wells were calculated after subtracting the time zero emission 590 nm measurement from the final reading and the IC50 was determined.
For orientation: The colour change of resazurin is a common sign of viable cells or microbes.

The subject of experiment [5] is Human foreskin BJ fibroblast cells (ATCC CRL-2522). In words: cytotoxicity assay (Alamar blue), fibroblasts. The experiment is classed as cell-based. The conditions noted are these: Homo sapiens; BJ cells, 24 h; read-out: Fibroblast IC50. Here is the method: as §2
In another experiment the test system is stromelysin. Also noted: method as in Harris et al. [1993]. The conditions noted are these: ref Harris et al. [1993]; read-out: IC50, inhibition of cleavage of β-casein by stromelysin; cited from earlier work.
The test system of experiment [6] is erythropoietin gene expression. Also noted: method as in Cai et al. [1998]. The conditions noted are these: at a concentration of 1–1.6 µM; ref Cai et al. [1998]; cited from earlier work.
For experiment [7], the system named is adult human epidermal keratinocytes (HEKa). Nature of the experiment: cytotoxicity assay (Alamar blue), keratinocytes. The experiment is classed as cell-based. The note with it: HeKa cells, 24 h.
Setting [8] is: triplicate, averaged, 22 h at 37°C.

A word on the IC50: it is the concentration that gives 50% inhibition. A word on the MIC: it is the lowest concentration found to suppress growth. Consider `Cc1cc(=O)c(O)cc2c1C[C@H]1CC(C)(C)/C=C/C[C@@]3(C)Oc4cc(O)c(=O)cc(C)c4C[C@@H]3C[C@H](O)[C@]1(C)O2` [Pycnidione, pycnidione], for which the half-maximal inhibitory concentration (IC50) with MRSA ATCC 33591 is 12 µg/mL (≈ 21.9 µM); in the experiment with S. warneri ATCC 17917, 12 µg/mL (≈ 21.9 µM); in the experiment with VRE EF379, 46 µg/mL (≈ 83.8 µM); in experiment [1] it was 30 µg/mL (≈ 54.7 µM); in [2] it was above 128 µg/mL; in [3] (setting [8]) it was 5 µg/mL (≈ 9.11 µM). For the same compound, the IC50 in [4] was 15 µg/mL (≈ 27.3 µM); in experiment [5], 11 µg/mL (≈ 20 µM); in the experiment with stromelysin, 31 µM. Also, the MIC in the experiment with MRSA ATCC 33591 was 16 µg/mL (≈ 29.2 µM); in the experiment with S. warneri ATCC 17917 it was 64 µg/mL (≈ 117 µM); in the experiment on VRE EF379, 64 µg/mL (≈ 117 µM); in experiment [1], 64 µg/mL (≈ 117 µM); in experiment [2], above 128 µg/mL; in experiment [3] (setting [8]), 8 µg/mL (≈ 14.6 µM). In addition, in experiment [6], the “induction of erythropoietin gene expression” value (from here on “induction”) is “five-fold”.

For `C/C1=C\C(C)(C)/C=C/C[C@@]2(C)Oc3cc(O)c(=O)cc(C)c3CC2C[C@@H](O)C1` (some centres unmarked) [Epolone B, epolone B], the IC50 is 48 µg/mL (≈ 125 µM) in the experiment on MRSA ATCC 33591; 52 µg/mL (≈ 135 µM) in the experiment with VRE EF379; above 64 µg/mL in [1]; above 128 µg/mL in experiment [2]; 43 µg/mL (≈ 112 µM) in experiment [3] (setting [8]); 50 µg/mL (≈ 130 µM) in experiment [4]. Besides, the IC50 in [5] was above 128 µg/mL. In addition, the minimum inhibitory concentration (MIC) with MRSA ATCC 33591 is 64 µg/mL (≈ 166 µM); in the experiment with VRE EF379, above 64 µg/mL; in [1], above 64 µg/mL; in experiment [2] it was above 128 µg/mL; in experiment [3] (setting [8]) it was 64 µg/mL (≈ 166 µM). The “effect against C. albicans” value in experiment [3] was “inhibitory effect”. For the same compound, in [6], the “induction” value was “five-fold”.

coniothyrione: in the experiment on MRSA ATCC 33591, the “MRSA IC50” value is 8 µg/mL and the “MRSA MIC” value was 16 µg/mL. Further, in the experiment on S. warneri ATCC 17917, the “S. warneri IC50” value was determined as 12 µg/mL and the “S. warneri MIC” value was determined as 16 µg/mL. For the same compound, in the experiment with VRE EF379, the “VRE IC50” value is reported as 4 µg/mL and the “VRE MIC” value worked out at 16 µg/mL. For the same compound, in experiment [1], the “P. vulgaris IC50” value is given as 30 µg/mL and the “P. vulgaris MIC” value is on record as above 64 µg/mL. In [2], the “P. aeruginosa IC50” value is above 64 µg/mL and the “P. aeruginosa MIC” value is above 64 µg/mL. Besides, in experiment [3] (setting [8]), the “C. albicans IC50” value is above 64 µg/mL and the “C. albicans MIC” value is reported as above 64 µg/mL. The “Keratinocyte IC50” value in experiment [4] turned out to be 5 µg/mL. In addition, the “Keratinocyte MIC” value in experiment [7] was 64 µg/mL.

For `Cc1cc(=O)c(O)cc2c1C[C@H]1CC(C)(C)/C=C/C[C@@]3(C)Oc4cc(O)cc(C)c4C[C@@H]3C[C@H](O)[C@]1(C)O2` [Epolone A, epolone A], the half-maximal inhibitory concentration (IC50) in the experiment with MRSA ATCC 33591 was 48 µg/mL (≈ 92.2 µM); in the experiment on S. warneri ATCC 17917 it was 33 µg/mL (≈ 63.4 µM); with VRE EF379, 44 µg/mL (≈ 84.5 µM); in [1], above 64 µg/mL; in experiment [2], above 128 µg/mL; in [3] (setting [8]) it was above 64 µg/mL. The half-maximal inhibitory concentration (IC50) was 13 µg/mL (≈ 25 µM) in experiment [4] and 14 µg/mL (≈ 26.9 µM) in [5]. Moreover, the MIC in the experiment on MRSA ATCC 33591 is 64 µg/mL (≈ 123 µM); with S. warneri ATCC 17917 it was 64 µg/mL (≈ 123 µM); with VRE EF379 it was above 64 µg/mL; in experiment [1], above 64 µg/mL; in [2], above 128 µg/mL; in experiment [3] (setting [8]), above 64 µg/mL. In [6], the “induction” value is “five-fold”.
